Laboratory results published in patent US20190148754A1, “USE OF IONIC LIQUIDS AS AN ADJUVANT IN ELECTROCHEMISTRY” (UNIVERSITE DE RENNES 1, priority 2016, published 2019).
In brackets after ≈: the same amount, converted by molar mass. Like-named read-outs stand apart in the source and are kept apart here.

How the values were obtained:
physchem = conditions: aqueous with cosolvent or surfactant or cyclodextrin, thermodynamic from solid, Solubility in KOH 2 mol · L^−1 and ionic liquid: Anthraquinone
[1] = Maximum solubility / solubilisation of organic compounds in ionic liquid/basic aqueous solution mixtures (flask method); conditions: for solubility: thermodynamic from solid; for natural solubility in a solution of pH=14: pH=14, without ionic liquid; for concentration of solution obtained: KOH 2M
[2] = Cyclic voltammetry of electrolytic solutions; type: physicochemical; conditions: vitreous carbon electrode
Experimental: The action of the ionic liquids on the solubility of the organic molecules can be observed by a simple electrochemical analysis. The method used is voltammetry with linear variation of the potential. The result is the plotting of a curve i=f(E) of which the value of the oxidation or reduction current of the electroactive molecule is proportional to its concentration in solution. The electrochemical analyses are performed in an electrochemical cell of which the volume is 40 ml. The volume of the solutions introduced into the electrochemical cell is 10 ml.
In order to perform the analyses, three electrodes immersed in the solution are used: • Working electrode. The working electrode is the location of the studied electrochemical reaction. In this instance, an electrode which is made of vitreous carbon and has a surface of 3 mm diameter, or a nickel electrode of 5 mm diameter was used. The electrochemical reactions are often sensitive to the nature of the electrodes. For example, depending on their nature, some electrodes may passivate and others may not, compared to the same electrochemical system in solution. • Counter electrode. The counter electrode enables the passage of the current in the solution between itself and the working electrode. This electrode must be very stable (for example must not dissolve in the event of oxidation). […]

[3] = aqueous KOH solution with ionic liquid, aqueous with cosolvent or surfactant or cyclodextrin, Solubility in KOH 2 mol · L^−1 and ionic liquid: Anthraquinone, KOH 2 mol·L^−1, ionic liquid (I-a), (I-b) or (I-c) 0.5 mol·L^−1
[4] = aqueous KOH solution without ionic liquid, aqueous buffer, Solubility in KOH 2 mol · L^−1, aqueous KOH 2 mol·L^−1, without ionic liquid

In the case of `O=C1c2ccccc2C(=O)c2ccccc21`, the “natural solubility in a solution of pH=14” value (“natural solubility” for short) is reported as “very weak” and the solubility (physchem) is reported as under 100 mM.

`O=C1c2cccc(O)c2C(=O)c2cccc(O)c21` gave a solubility [1, 3] of 500 mM (≈ 120 mg/mL) and a solubility [1, 4] of 100 mM (≈ 24 mg/mL).

In the case of `O=C1c2ccccc2C(=O)c2cc(S(=O)(=O)O)ccc21`, the solubility [1, 3] is reported as 100 mM (≈ 28.8 mg/mL), the solubility [1, 4] is reported as under 100 mM and the “natural solubility” value [1] is reported as “very weak”.

For `Nc1cccc2c1C(=O)c1ccccc1C2=O`, the solubility [1, 3] was 100 mM (≈ 22.3 mg/mL), the solubility [1, 4] was under 100 mM and the “natural solubility” value [1] was “very weak”.

Work on `O=C1c2ccccc2C(=O)c2c1cc(S(=O)(=O)[O-])c(O)c2O.[Na+]` [Alizarin redS, Alizarin Red S] yielded a solubility ([1]; aqueous KOH solution with ionic liquid, aqueous with cosolvent or surfactant or cyclodextrin, Solubility in KOH 2 mol · L^−1 and ionic liquid: Anthraquinone, KOH 2 mol·L^−1, ionic liquid (I-a), (I-b) or (I-c) 0.6 mol·L^−1) of 600 mM, a solubility ([1]; aqueous KOH solution with ionic liquid, aqueous with cosolvent or surfactant or cyclodextrin, solubility in the presence of ionic liquid, KOH 2 mol·L^−1, 0.6 M ionic liquid) of 600 mM and a solubility [1, 4] of 200 mM. The solubility ([1]; aqueous KOH solution without ionic liquid, aqueous buffer, solubility in a solution of KOH 2 mol·L^−1, KOH 2 mol·L^−1, without ionic liquid) was about 200 mM, the “increase in the intensity of the oxidation peak and the reduction peak (factor)” value ([2]; 0.6 M ionic liquid vs none, 100 mV·s^−1 (FIG. 1)) was 15 and the peak current intensity ([2]; 0.6 mol·L^−1 with 0.6 mol·L^−1 ionic liquid, 100 mV·s^−1) was “greater than 60 mA·cm^−2”.

With `O=C1c2ccccc2C(=O)c2c1ccc(O)c2O` [alizarin, Alizarin] the “concentration of solution obtained” value ([1]; 1,3-dimethylimidazolium methyl sulfate 1:1 with alizarin) was “greater than 0.5 M”, the “concentration of solution obtained” value ([1]; 1,3-dimethylimidazolium methyl sulfate less than 1:1 to alizarin, precipitate still visible) was under 0.5 M and the “concentration of solution obtained” value ([1]; N-methylisoquinolinium methyl sulfate 1:1 with alizarin, precipitate still visible) was under 0.5 M. The “concentration in aqueous solution of KOH 2 M with ionic liquid” value ([1]; KOH 2 M, addition of 10% (vol.) ionic liquid) was 0.5 M, the “concentration of solution obtained” value ([1]; alizarin/1,3-dimethylimidazolium methyl sulfate/N-methylisoquinolinium methyl sulfate 1:0.5:0.5) was 0.8 M and the “concentration of solution obtained” value ([1]; either isolated ionic liquid, alizarin/ionic liquid 1:0.5, no solution obtained) was under 0.5 M. For the same compound, the solubility [1, 3] was 500 mM (≈ 120 mg/mL), the solubility ([1]; aqueous KOH solution with ionic liquid, aqueous with cosolvent or surfactant or cyclodextrin, concentration solubilised in aqueous solution of KOH 2 M with ionic liquid, KOH 2 M, 5% (vol.) ionic liquid) was 250 mM (≈ 60.1 mg/mL) and the solubility [1, 4] was 100 mM (≈ 24 mg/mL). The solubility ([1]; aqueous KOH solution without ionic liquid, aqueous buffer, soluble concentration in aqueous solution of KOH 2 M, KOH 2 M, without ionic liquid (saturation)) was 100 mM (≈ 24 mg/mL).
